Test results as given in patent US9249115B2, “N,N1 substituted piperazines having combined antiaggregant, anticoagulant and vasodilatory activity, and method for producing same” (Vertex Closed Joint Stock Company, priority 2011, dated 2016).

Experiments:
[1] = tested on: Thrombocyte aggregation induced by arachidonic acid; assay: Thrombocyte aggregation induced by arachidonic acid; type: cell-based, human; conditions: arachidonic acid 0.2 mmol
Protocol: (§1) The study of antiaggregant and anticoagulant properties of N,N′-substituted piperazines on the sample of donor human blood. The blood was collected by donor ulnar vein punction with dry sharp needle without syringe. The administration of drugs that influence on thrombocyte function was cancelled in 7÷10 days before the experiment.
(§2) In graduated plastic centrifuge tube 1 ml of 3.8% basic trisodium citrate solution with pH=7.4 was placed. The ulnar vein was punctuated, the freely effluent blood was collected up to 10 ml mark, the mixture was instantly stirred to prevent air bubbles appearance. The collected and stabilized blood was split in two 5 ml portions in two tubes.
(§3) To obtain thrombocyte enriched plasm the stabilized blood was spinned at 1000 rpm (150 g) for 8 min at room temperature. The repeated spinning of the blood at 3200 rpm (2300 g) for 20 min at 22° C. yielded thrombocyte depleted plasm.
The study of antiaggregant properties of N,N′-substituted piperazines with arachidonic acid (CHRONO-LOG, USA) as an inductor: to 450 l of thrombocyte plasm 50 l of N,N′-substituted piperazine solution was added, the mixture was incubated in the cuvette of CHRONO-LOG aggregometer for 15 min at 36° C. The concentration of arachidonic acid in the sample was 0.2 mmol, the concentrations of N,N′-substituted piperazines and comparison substance (aspirin) were 4÷5 mmol/L.
It was shown that N,N′-substituted piperazines have pronounced aspirin-like activity by inhibiting thrombocyte aggregation induced by arachidonic acid (table 5).

[2] = tested on: Ristocetin-induced thrombocyte aggregation; assay: Ristocetin-induced thrombocyte aggregation, donor human thrombocyte enriched plasm; type: cell-based; conditions: ristocetin inductor; for MA (60 c), %: amplitude at 60 s
Protocol: as §1, §2, §3
(§4) The study of anticoagulant activity was done within 2 h after thrombocyte enriched plasm obtaining. The plasm was normalized to achieve thrombocyte concentration of 200-250×10^9/L by addition of thrombocyte-free plasm. The concentration of thrombocytes was measured on SOLAR AR 2110 analyzer.
(§5) Antiaggregant properties of N,N′-substituted piperazines were evaluated by their influence on thrombocyte aggregation in tests with ADP-, collagen- and ristocetin-induced aggregation. To dissolve N,N′-substituted piperazines and to dilute reagents Tris-HCl-buffer with pH=7.4 was used.
(§6) As the general characteristic of thrombocyte aggregation activity the maximum amplitude (MA) of aggregation was taken on. That is the peak value of transmittance coefficient of the sample after aggregation agent introduction expressed in % relative to the transmittance of thrombocyte-free plasm. The response was registered on ascending linear segment of aggregation curve for 16 s.
(§7) The measurements were done using 4-channel CHRONO-LOG 490-4D analyzer (CHRONO-LOG, USA). The temperature in the cell was 37° C., the spinning speed of magnetic stirrer was 1200 rpm.
(§8) In a cuvette 0.5 ml of N,N′-substituted piperazine solution was placed, then 0.4 ml of normalized thrombocyte plasm was added. The mixture was stirred and incubated at 37° C. for 5 min. The cuvette was placed in aggregometer, then 0.05 ml of aggregation inductor solution was added (ADP or collagen or ristocetin). Thrombocyte aggregation was measured for 3 min.
To study ristocetin-induced thrombocyte aggregation CHRONO-PAR RISTOCETIN reagent (CHRONO-LOG, USA) was diluted with buffer solution until ristocetin concentration reached 12 mg/ml. Thrombocyte aggregation amplitude was measured in 60 s after the beginning of the reaction.

[3] = tested on: experimental photothrombosis; assay: Experimental photothrombosis model, arterial blood velocity; type: in vivo, Wistar male rats
Protocol: The studies were done on Wistar male rats with mass of 230±30 g (laboratory animals nursery “Rappolovo”, RAMS). The animals were kept with unlimited food (standard ration for laboratory rats K-120 by <<Inform-korm>>, Russia) and water allowance. […]
Thrombosis modeling: the drugs were introduced into left femoral vein, in 50 min afterwards 1 ml of Bengal rose A photosensitizer (Acros Organics, USA) solution was introduced with dose of 17 mg/kg [Boselli 2007, Petrischev 2009]. Then the incision of internal surface of animal right thigh about 2 cm in length was made. The section of the femoral vein about 5 mm in length was released from surrounding tissues and separated from neurovascular bundle. Beneath this section of the vein the black non-transparent plastic strip 3 mm in width was laid to screen off the vein and surrounding tissues from radiation. The irradiation was done using diode laser <<DPSS-laser>> (Diode Pumped Solid State Laser, South Korea) with 532 nm wavelength and 60 mW power. The area of irradiation was 1 mm^2, exposing time was 40 min. The blood flow in femoral artery was measured by high frequency Doppler ultrasonography method (<<Minimax-Doppler-K>> apparatus, frequency of sensor was 20 MHz). The blood velocity alteration due to irradiation was measured (Table 9).

[4] = tested on: ADP-induced thrombocyte aggregation; assay: ADP-induced thrombocyte aggregation, donor human thrombocyte enriched plasm; type: cell-based; conditions: ADP inductor; for MA, %: human thrombocyte plasm; for inhibition at 200 µM / inhibition at 500 µM / inhibition at 1250 µM / inhibition at 2500 µM: Homo sapiens, read-out: (MA0-MAx): MA0 * 100%
Protocol: as §1, §2, §3, §4, §5, §6, §7, §8
ADP-induced reversible thrombocyte aggregation test utilized CHRONO-PAR ADP reagent (CHRONO-LOG, USA) with 10 mol concentration. Primary (reversible) thrombocyte aggregation was evaluated by the response on addition of ADP threshold dose (ADP concentration is 1 mol) to plasm.

[5] = tested on: Collagen-induced thrombocyte aggregation; assay: Collagen-induced thrombocyte aggregation, donor human thrombocyte enriched plasm; type: cell-based; conditions: collagen inductor; for MA, %: human thrombocyte plasm; for inhibition at 500 µM / inhibition at 1250 µM / inhibition at 2500 µM / inhibition at 5000 µM: Homo sapiens, read-out: (MA0-MAx): MA0 * 100%
Protocol: as §1, §2, §3, §4, §5, §6, §7, §8
In collagen-induced thrombocyte aggregation test CHRONO-PAR COLLAGEN reagent (CHRONO-LOG, USA) was diluted with buffer solution until collagen concentration reached 10 µg/ml.

[6] = tested on: thrombocyte depleted plasm coagulation; assay: Activated partial thromboplastin time (APTT), anticoagulant properties; type: biochemical, human; conditions: for APTT: thrombocyte depleted plasm
Protocol: as §1, §2, §3
To study anticoagulant properties of N,N′-substituted piperazines activated partial thromboplastin time (APTT) was measured. That is the ability of N,N′-substituted piperazines to increase thrombocyte depleted plasm coagulation time compared to the ability of control sample. The set of reagents for APTT determination (Russian Scientific Research Institute of Hematology and Transfusiology Ministry of Health of Russian Federation by Technical Regulation 9398-214-01966456-99) and COAG-A-MATE® XM coagulometer (ORGANON TEKNIKA, USA) were used.
The solutions of N,N′-substituted piperazines were mixed with thrombocyte depleted plasm at 1:1 ratio, then 0.1 ml of APTT reagent was added, the mixture was incubated in the cuvette for 5 min at 37° C., then 0.1 ml of 0.277% CaCl2 solution was added. The time of coagulation (in seconds) was measured.

| Compound | (MAx-MA0): MA0 * 100% ([2]; 0.5 mmol/L) [%] | MA (60 c), % ([2]; 0.5 mmol/L) [%] | (MAx-MA0): MA0 * 100% (Ozagrel: (MA0-MAx): MA0 * 100%) ([2]; 1.25 mmol/L) [%] | MA (60 c), % ([2]; 1.25 mmol/L) [%] | (MAx-MA0): MA0 * 100% (Ozagrel: (MA0-MAx): MA0 * 100%) ([2]; 2.5 mmol/L) [%] | MA (60 c), % ([2]; 2.5 mmol/L) [%] | (MAx-MA0): MA0 * 100% (Ozagrel: (MA0-MAx): MA0 * 100%) ([2]; 5.0 mmol/L) [%] | MA (60 c), % ([2]; 5.0 mmol/L) [%] | MA, % ([4]; 0.2 mmol/L) [%] | MA, % ([4]; 0.5 mmol/L) [%] | MA, % ([4]; 1.25 mmol/L) [%] | MA, % ([4]; 2.50 mmol/L) [%] | inhibition at 200 µM ([4]; 0.2 mmol/L) [%] | inhibition at 500 µM ([4]; 0.5 mmol/L) [%] | inhibition at 1250 µM ([4]; 1.25 mmol/L) [%] | inhibition at 2500 µM ([4]; 2.50 mmol/L) [%] | MA, % ([5]; 0.5 mmol/L) [%] | MA, % ([5]; 1.25 mmol/L) [%] | MA, % ([5]; 2.5 mmol/L) [%] | MA, % ([5]; 5.0 mmol/L) [%] | also measured |
| --- | --- | --- | --- | --- | --- | --- | --- | --- | --- | --- | --- | --- | --- | --- | --- | --- | --- | --- | --- | --- | --- |
| CC(=O)Oc1ccccc1C(=O)O [Acetylsalicylic acid, reference compound] |  |  |  |  |  |  |  |  |  |  |  |  |  |  |  |  |  |  |  |  | MA ([1]; 5 mmol/L): 3; Max. rate for 16 sec ([1]; 5 mmol/L): 5; inhibition at 5000 µM ([1]; Homo sapiens, 5 mmol/L): 100% |
| COc1ccc(CN2CCN(CC(O)CS(=O)(=O)[O-])CC2)c(OC)c1OC.[Na+] (centres unmarked) [Example 3, 3-(1-(2,3,4-trimethoxybenzyl)piperazine-4-yl)-2-hydroxy-1-propanesulfonic acid sodium salt] | 6.1 | 63.0 ± 6.1 | 7.5 | 62.1 ± 8.9 | 24.0 | 51.0 ± 7.2 | 77.5 | 25.1 ± 3.2 |  |  |  |  |  |  |  |  |  |  |  |  | V, cm/s (arterial blood velocity) ([3]; 0.01 mmol/kg, 0 min of irradiation): 7.1 ± 3.2 cm/s; V, cm/s (arterial blood velocity) ([3]; 0.01 mmol/kg, 10 min of irradiation): 7.00 ± 2.4 cm/s; V, cm/s (arterial blood velocity) ([3]; 0.01 mmol/kg, 20 min of irradiation): 7.5 ± 2.2 cm/s; V, cm/s (arterial blood velocity) ([3]; 0.01 mmol/kg, 30 min of irradiation): 6.4 ± 1.9 cm/s; V, cm/s (arterial blood velocity) ([3]; 0.01 mmol/kg, 40 min of irradiation): 6.6 ± 1.5 cm/s; V, cm/s (arterial blood velocity) ([3]; 0.025 mmol/kg, 0 min of irradiation): 8.5 ± 1.7 cm/s; V, cm/s (arterial blood velocity) ([3]; 0.025 mmol/kg, 10 min of irradiation): 8.4 ± 1.2 cm/s; V, cm/s (arterial blood velocity) ([3]; 0.025 mmol/kg, 20 min of irradiation): 8.4 ± 3.0 cm/s; V, cm/s (arterial blood velocity) ([3]; 0.025 mmol/kg, 30 min of irradiation): 8.9 ± 1.6 cm/s; V, cm/s (arterial blood velocity) ([3]; 0.025 mmol/kg, 40 min of irradiation): 8.5 ± 1.2 cm/s |
| COc1ccc(CN2CCN(C(=N)N)CC2)c(OC)c1OC [Example 7, 4-(2,3,4-trimethoxybenzyl)piperazine-1-carboximidamide monohydrate] |  |  |  |  |  |  |  |  |  |  |  |  |  |  |  |  |  |  |  |  | MA ([1]; 4.5 mmol/L): 72; Max. rate for 16 sec ([1]; 4.5 mmol/L): 49; inhibition at 4500 µM ([1]; Homo sapiens, 4.5 mmol/L): 35% |
| COc1ccc(CN2CCN(C(=N)N)CC2)c(OC)c1OC.O=C(O)/C=C/C(=O)O [Example 8, 4-(2,3,4-trimethoxybenzyl)piperazine-1-carboximidamide fumarate] | 16.1 | 50.7 ± 8.7 | 20.5 | 48.0 ± 5.8 | 35.1 | 39.2 ± 11.6 | 44.7 | 33.4 ± 9.9 | 18.5 ± 2.8 | 14.3 ± 3.0 | 8.5 ± 2.8 | 2.5 ± 1.6 | 2.6 | 24.7 | 55.3 | 86.8 | 72.3 ± 6.3 | 63.5 ± 9.8 | 58.5 ± 9.6 | 51.3 ± 7.9 | inhibition at 500 µM ([5]; 0.5 mmol/L): 5.2%; inhibition at 1250 µM ([5]; 1.25 mmol/L): 16.8%; inhibition at 2500 µM ([5]; 2.5 mmol/L): 23.3%; inhibition at 5000 µM ([5]; 5.0 mmol/L): 32.8%; MA (60 c), % ([2]; 0.2 mmol/L): 60.4 ± 9.1%; (APTTx-APTT0): APTT0 * 100% ([6]; 1.7 mmol/L): 27.0%; APTT ([6]; 1.7 mmol/L): 61.1 ± 4.4 s; (APTTx-APTT0): APTT0 * 100% ([6]; 2.5 mmol/L): 56.5%; APTT ([6]; 2.5 mmol/L): 71.3 ± 5.2 s; (APTTx-APTT0): APTT0 * 100% ([6]; 4.1 mmol/L): 89.4%; APTT ([6]; 4.1 mmol/L): 91.1 ± 9.9 s; (APTTx-APTT0): APTT0 * 100% ([6]; 8.3 mmol/L): 201.5%; APTT ([6]; 8.3 mmol/L): 145.0 ± 7.3 s |
| Cl.N=C(N)N1CCN(S(=O)(=O)c2cc(Cl)c(Cl)cc2Cl)CC1 [Example 13, 4-(2,4,5-trichlorophenylsulfonyl)piperazine-1-carboximidamide hydrochloride] | 22.5 | 48.2 ± 7.5 | 30.9 | 43.0 ± 4.8 | 43.4 | 35.2 ± 7.6 | 48.4 | 32.1 ± 5.5 | 14.0 ± 3.9 | 10.3 ± 1.3 | 4.7 ± 2.1 | 1.4 ± 0.2 | 10.8 | 34.4 | 70.1 | 91.1 | 72.1 ± 6.3 | 62.0 ± 9.8 | 55.0 ± 9.2 | 48.7 ± 7.1 | inhibition at 500 µM ([5]; 0.5 mmol/L): 7.2%; inhibition at 1250 µM ([5]; 1.25 mmol/L): 20.2%; inhibition at 2500 µM ([5]; 2.5 mmol/L): 29.2%; inhibition at 5000 µM ([5]; 5.0 mmol/L): 37.3%; (MAx-MA0): MA0 * 100% ([2]; 0.2 mmol/L): 1.8%; MA (60 c), % ([2]; 0.2 mmol/L): 60.1 ± 8.1%; MA ([1]; 4.0 mmol/L): 2; Max. rate for 16 sec ([1]; 4.0 mmol/L): 1; inhibition at 4000 µM ([1]; Homo sapiens, 4.0 mmol/L): 100% |
